Measured values from ChEMBL document CHEMBL3272273, “Synthesis and pharmacological activity and some derivatives of 1-phenyl-1,2,3,4-tetrahydro-5H-1,4-benzodiazepin-5-one” (J Med Chem, 1978).

Columns and labels:
Mus musculus [1] = assay: Neurotoxicity in albino mouse at 10 mg/kg, po up to 5 mins by rotorod test relative to control; assay type: toxicity, organism-based; design: dose 10 mg/kg, route oral; settings: in vivo
[2] = Acute toxicity in ip dosed albino mouse measured within 24 hrs; assay type: organism-based; settings: in vivo
Mus musculus [3] = assay: Toxicity in albino mouse assessed as body-temperature variation at 10 mg/kg, ip measured 20 mins after dl-amphetamine sulfate injection dosed 30 mins before dl-amphetamine sulfate injection; assay type: organism-based; design: dose 10 mg/kg, route intraperitoneal; settings: in vivo
Mus musculus [4] = assay: Toxicity in albino mouse assessed as translatory movements at 10 mg/kg, ip relative to control; assay type: organism-based; design: dose 10 mg/kg, route intraperitoneal; settings: in vivo
Mus musculus [5] = assay: Toxicity in ip dosed mouse assessed as sedative action; assay type: organism-based; settings: in vivo
[6] = Antinoradrenaline activity in isolated Wistar rat caudal artery assessed as dose required to decrease 20 to 50% of noradrenaline-induced effect per 6 mL/min after 15 mins; assay type: functional
Ileum [7] = assay: Antiacetylcholine activity in guinea pig ileum assessed as dose required to decrease 50 to 100% of acetylcholine-induced effect treated 5 mins before acetylcholine addition; assay type: functional, Cavia porcellus
Mus musculus [8] = assay: Toxicity in ip dosed albino mouse assessed as dose required to increase 25% of dl-amphetamine sulfate-induced death; assay type: organism-based; settings: in vivo
Mus musculus [9] = assay: Toxicity in ip dosed albino mouse assessed as barbiturate-induced sleep by measuring loss of righting reflex relative to control; assay type: organism-based; settings: in vivo
Mus musculus [10] = assay: Toxicity in ip dosed albino mouse assessed as barbiturate-induced sleep by measuring loss of righting reflex administered 45 mins before barbiturate challenge relative to control; assay type: organism-based; settings: in vivo, 0.75 h
[11] = Antitrypatamine activity in isolated Wistar rat caudal artery assessed as dose required to decrease 20 to 50% of […]-induced effect per 6 mL/min after 15 mins; assay type: functional
Ileum [12] = assay: Antihistamine activity in guinea pig ileum assessed as dose required to decrease 50 to 100% of histamine induced effect treated 5 mins before histamine addition; assay type: functional, Cavia porcellus
Mus musculus [13] = assay: Anticonvulsant activity in ip dosed albino mouse assessed as dose causing >25% increase in maximal electroshock-induced maximal extensor seizure relative to untreated control; assay type: functional
Mus musculus [14] = assay: Toxicity in albino mouse assessed as translatory movements at 5 mg/kg, ip relative to control; assay type: organism-based; design: dose 5 mg/kg, route intraperitoneal; settings: in vivo
Mus musculus [15] = assay: Toxicity in albino mouse assessed as body-temperature variation at 5 mg/kg, ip measured 20 mins after dl-amphetamine sulfate injection dosed 30 mins before dl-amphetamine sulfate injection; assay type: organism-based; design: dose 5 mg/kg, route intraperitoneal; settings: in vivo
Mus musculus [16] = assay: Neurotoxicity in albino mouse at 5 mg/kg, po up to 5 mins by rotorod test relative to control; assay type: toxicity, organism-based; design: dose 5 mg/kg, route oral; settings: in vivo
Mus musculus [17] = assay: Anticonvulsant activity in ip dosed albino mouse assessed as dose causing total prevention of maximal electroshock-induced maximal extensor seizure; assay type: functional

SMILES	Activity (Mus musculus [1]) [%]	LD50 at 24 h [2] [mg/kg]	temperature change (Mus musculus [3]) [°C]	Activity (Mus musculus [4]) [%]	Activity (Mus musculus [5])	Activity [6] [µg/min]	Activity (Ileum [7]) [µg/mL]	Activity (Mus musculus [8]) [mg/kg]	Activity (Mus musculus [9]) [%]	Activity (Mus musculus [10]) [%]	Activity [11] [µg/min]	Activity (Ileum [12]) [µg/mL]	Activity (Mus musculus [13]) [mg/kg]	Activity (Mus musculus [14]) [%]	temperature change (Mus musculus [15]) [°C]	Activity (Mus musculus [16]) [%]	Activity (Mus musculus [17]) [mg/kg]
CN(C)CCN1CCN(c2ccccc2)c2ccccc2C1=O	-6	100	0.6	-30	Non-toxic	200	100	10	4	15	50	50	50	–	–	–	–
CN(C)CCCN1CCN(c2ccccc2)c2ccccc2C1=O	-12	116	–	-15	Non-toxic	160	100	–	35	10	50	100	10	–	–	–	–
CC(CN(C)C)N1CCN(c2ccccc2)c2ccccc2C1=O (configuration not stated)	-25	130	–	4	Non-toxic	160	50	–	20	12.5	50	50	12	–	–	–	–
CCN(CC)CCN1CCN(c2ccccc2)c2ccccc2C1=O	11	75	–	1	Non-toxic	80	100	–	40	10	50	100	5	–	–	–	–
O=C1c2ccccc2N(c2ccccc2)CCN1CCN1CCCC1	-32	80	-0.2	-10	Non-toxic	15	100	–	60	20	50	50	–	–	–	–	–
O=C1c2ccccc2N(c2ccccc2)CCN1CCN1CCCCC1	-27	75	1.4	-11	Non-toxic	25	100	10	45	20	25	50	25	–	–	–	–
C[N+](C)(C)CCN1CCN(c2ccccc2)c2ccccc2C1=O.[I-]	–	35	–	–	Non-toxic	50	50	5	-40	15	50	50	15	20	-0.3	-21	–
C[N+](C)(C)CCCN1CCN(c2ccccc2)c2ccccc2C1=O.[I-]	–	50	–	–	Non-toxic	100	50	5	-25	10	50	50	10	-5	1.2	70	–
CC(C[N+](C)(C)C)N1CCN(c2ccccc2)c2ccccc2C1=O.[I-] (configuration not stated)	–	15	–	–	Non-toxic	50	200	–	-15	5	15	50	5	1	0.3	-7	–
CC[N+](C)(CC)CCN1CCN(c2ccccc2)c2ccccc2C1=O.[I-]	–	15	–	–	Non-toxic	50	50	3	-40	5	15	50	5	-3	1.4	20	–
C[N+]1(CCN2CCN(c3ccccc3)c3ccccc3C2=O)CCCC1.[I-]	11	10	–	–	Non-toxic	5	100	3	30	5	50	50	3	-8	1.6	–	–
C[N+]1(CCN2CCN(c3ccccc3)c3ccccc3C2=O)CCCCC1.[I-]	8	15	–	–	Non-toxic	25	50	–	20	3	50	200	–	-20	0.9	–	–
O=C1NCCN(c2ccc([N+](=O)[O-])cc2)c2ccc([N+](=O)[O-])cc21	-45	> 400	1	-21	Non-toxic	–	200	–	40	50	–	200	–	–	–	–	–
Nc1ccc2c(c1)C(=O)NCCN2c1ccc([N+](=O)[O-])cc1	39	> 400	1.2	-15	Non-toxic	–	50	–	70	50	–	200	–	–	–	–	–
Nc1ccc(N2CCNC(=O)c3ccccc32)cc1	-20	> 400	1.4	2	Non-toxic	–	200	–	90	50	–	200	–	–	–	–	–
CN1C(=O)CN=C(c2ccccc2)c2cc(Cl)ccc21 [DIAZEPAM]	-40	–	–	-50	Non-toxic	–	–	–	–	–	–	4	–	–	–	–	50
